This is an account of results in US9663508B2, “Biaryl acyl-sulfonamide compounds as sodium channel inhibitors” (AMGEN INC., priority 2013, dated 2017).

In one data set the target is human Nav 1.5 (Homo sapiens (Human), UniProt Q14524). As to the kind of experiment: Nav 1.5 IonWorks Quattro (IWQ) in vitro assay. It counts as cell-based. On the technique in general: In patch-clamp work, channel activity is measured electrically.
A further data set deals with human Nav1.7 (Homo sapiens (Human), UniProt Q15858). The data set is described as follows: Nav 1.7 in vitro PatchXpress (PX) assay. It counts as cell-based.
human Nav1.7, sequence (Q15858 whole entry): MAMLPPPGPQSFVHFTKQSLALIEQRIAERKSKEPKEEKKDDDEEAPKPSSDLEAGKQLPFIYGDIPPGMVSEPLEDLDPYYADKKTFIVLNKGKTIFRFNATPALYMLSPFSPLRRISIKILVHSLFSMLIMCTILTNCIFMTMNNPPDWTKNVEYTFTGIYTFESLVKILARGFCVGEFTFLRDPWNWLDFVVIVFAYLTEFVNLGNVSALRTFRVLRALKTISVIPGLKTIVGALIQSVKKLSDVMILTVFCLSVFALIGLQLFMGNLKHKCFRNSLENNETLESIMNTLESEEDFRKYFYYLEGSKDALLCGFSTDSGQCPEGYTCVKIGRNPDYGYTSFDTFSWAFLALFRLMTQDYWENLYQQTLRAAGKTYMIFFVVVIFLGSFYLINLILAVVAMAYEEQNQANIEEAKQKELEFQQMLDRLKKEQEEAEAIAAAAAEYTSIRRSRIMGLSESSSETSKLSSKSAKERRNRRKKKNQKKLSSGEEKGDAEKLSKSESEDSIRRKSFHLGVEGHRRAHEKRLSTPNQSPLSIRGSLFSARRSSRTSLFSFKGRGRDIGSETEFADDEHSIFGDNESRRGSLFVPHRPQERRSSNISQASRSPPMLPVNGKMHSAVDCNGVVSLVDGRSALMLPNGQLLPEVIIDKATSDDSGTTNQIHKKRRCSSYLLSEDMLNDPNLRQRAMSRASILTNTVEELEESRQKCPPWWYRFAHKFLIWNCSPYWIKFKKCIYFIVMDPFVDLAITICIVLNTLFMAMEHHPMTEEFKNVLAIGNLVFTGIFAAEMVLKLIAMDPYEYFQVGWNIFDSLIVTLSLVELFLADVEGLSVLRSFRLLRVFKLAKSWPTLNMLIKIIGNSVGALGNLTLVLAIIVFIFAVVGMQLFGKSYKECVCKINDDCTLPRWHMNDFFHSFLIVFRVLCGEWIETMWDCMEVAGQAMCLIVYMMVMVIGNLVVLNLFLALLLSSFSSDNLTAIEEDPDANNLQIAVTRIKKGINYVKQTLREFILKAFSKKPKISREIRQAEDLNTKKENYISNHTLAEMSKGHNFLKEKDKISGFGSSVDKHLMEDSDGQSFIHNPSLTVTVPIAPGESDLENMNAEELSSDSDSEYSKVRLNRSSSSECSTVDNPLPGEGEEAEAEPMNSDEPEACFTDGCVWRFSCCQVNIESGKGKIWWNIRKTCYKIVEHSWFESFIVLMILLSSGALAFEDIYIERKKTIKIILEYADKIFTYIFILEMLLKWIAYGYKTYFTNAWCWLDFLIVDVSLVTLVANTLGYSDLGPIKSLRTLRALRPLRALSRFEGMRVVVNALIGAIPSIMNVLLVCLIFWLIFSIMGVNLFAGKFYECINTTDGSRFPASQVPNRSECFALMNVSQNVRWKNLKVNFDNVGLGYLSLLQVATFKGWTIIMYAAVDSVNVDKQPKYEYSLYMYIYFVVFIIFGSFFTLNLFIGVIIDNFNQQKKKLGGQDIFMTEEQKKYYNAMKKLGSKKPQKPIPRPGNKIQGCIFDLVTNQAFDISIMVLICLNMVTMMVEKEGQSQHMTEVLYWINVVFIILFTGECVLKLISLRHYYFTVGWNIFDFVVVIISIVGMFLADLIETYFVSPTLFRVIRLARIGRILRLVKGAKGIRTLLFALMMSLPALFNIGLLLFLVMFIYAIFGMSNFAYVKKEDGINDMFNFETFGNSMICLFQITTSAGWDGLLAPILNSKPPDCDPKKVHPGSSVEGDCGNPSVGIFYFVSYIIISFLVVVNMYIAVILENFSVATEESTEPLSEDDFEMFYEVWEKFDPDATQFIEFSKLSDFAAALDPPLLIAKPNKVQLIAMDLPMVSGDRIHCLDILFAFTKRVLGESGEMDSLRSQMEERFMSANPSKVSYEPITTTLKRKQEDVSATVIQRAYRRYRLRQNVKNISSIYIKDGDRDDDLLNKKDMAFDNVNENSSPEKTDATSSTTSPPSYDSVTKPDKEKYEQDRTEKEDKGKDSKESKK
The mark [1] stands for this setting: human, HEK 293 cells stably transfected with human Nav 1.5, in-vitro Nav 1.5 IWQ data, read-out: NAV 1.5 IWQ (IC50).
Where [2] appears, read: in-vitro Nav 1.5 IWQ data, read-out: NAV 1.5 IWQ (IC50).

Like-named read-outs stand apart in the source and are kept apart here.

human Nav 1.5, sequence (Q14524 whole entry): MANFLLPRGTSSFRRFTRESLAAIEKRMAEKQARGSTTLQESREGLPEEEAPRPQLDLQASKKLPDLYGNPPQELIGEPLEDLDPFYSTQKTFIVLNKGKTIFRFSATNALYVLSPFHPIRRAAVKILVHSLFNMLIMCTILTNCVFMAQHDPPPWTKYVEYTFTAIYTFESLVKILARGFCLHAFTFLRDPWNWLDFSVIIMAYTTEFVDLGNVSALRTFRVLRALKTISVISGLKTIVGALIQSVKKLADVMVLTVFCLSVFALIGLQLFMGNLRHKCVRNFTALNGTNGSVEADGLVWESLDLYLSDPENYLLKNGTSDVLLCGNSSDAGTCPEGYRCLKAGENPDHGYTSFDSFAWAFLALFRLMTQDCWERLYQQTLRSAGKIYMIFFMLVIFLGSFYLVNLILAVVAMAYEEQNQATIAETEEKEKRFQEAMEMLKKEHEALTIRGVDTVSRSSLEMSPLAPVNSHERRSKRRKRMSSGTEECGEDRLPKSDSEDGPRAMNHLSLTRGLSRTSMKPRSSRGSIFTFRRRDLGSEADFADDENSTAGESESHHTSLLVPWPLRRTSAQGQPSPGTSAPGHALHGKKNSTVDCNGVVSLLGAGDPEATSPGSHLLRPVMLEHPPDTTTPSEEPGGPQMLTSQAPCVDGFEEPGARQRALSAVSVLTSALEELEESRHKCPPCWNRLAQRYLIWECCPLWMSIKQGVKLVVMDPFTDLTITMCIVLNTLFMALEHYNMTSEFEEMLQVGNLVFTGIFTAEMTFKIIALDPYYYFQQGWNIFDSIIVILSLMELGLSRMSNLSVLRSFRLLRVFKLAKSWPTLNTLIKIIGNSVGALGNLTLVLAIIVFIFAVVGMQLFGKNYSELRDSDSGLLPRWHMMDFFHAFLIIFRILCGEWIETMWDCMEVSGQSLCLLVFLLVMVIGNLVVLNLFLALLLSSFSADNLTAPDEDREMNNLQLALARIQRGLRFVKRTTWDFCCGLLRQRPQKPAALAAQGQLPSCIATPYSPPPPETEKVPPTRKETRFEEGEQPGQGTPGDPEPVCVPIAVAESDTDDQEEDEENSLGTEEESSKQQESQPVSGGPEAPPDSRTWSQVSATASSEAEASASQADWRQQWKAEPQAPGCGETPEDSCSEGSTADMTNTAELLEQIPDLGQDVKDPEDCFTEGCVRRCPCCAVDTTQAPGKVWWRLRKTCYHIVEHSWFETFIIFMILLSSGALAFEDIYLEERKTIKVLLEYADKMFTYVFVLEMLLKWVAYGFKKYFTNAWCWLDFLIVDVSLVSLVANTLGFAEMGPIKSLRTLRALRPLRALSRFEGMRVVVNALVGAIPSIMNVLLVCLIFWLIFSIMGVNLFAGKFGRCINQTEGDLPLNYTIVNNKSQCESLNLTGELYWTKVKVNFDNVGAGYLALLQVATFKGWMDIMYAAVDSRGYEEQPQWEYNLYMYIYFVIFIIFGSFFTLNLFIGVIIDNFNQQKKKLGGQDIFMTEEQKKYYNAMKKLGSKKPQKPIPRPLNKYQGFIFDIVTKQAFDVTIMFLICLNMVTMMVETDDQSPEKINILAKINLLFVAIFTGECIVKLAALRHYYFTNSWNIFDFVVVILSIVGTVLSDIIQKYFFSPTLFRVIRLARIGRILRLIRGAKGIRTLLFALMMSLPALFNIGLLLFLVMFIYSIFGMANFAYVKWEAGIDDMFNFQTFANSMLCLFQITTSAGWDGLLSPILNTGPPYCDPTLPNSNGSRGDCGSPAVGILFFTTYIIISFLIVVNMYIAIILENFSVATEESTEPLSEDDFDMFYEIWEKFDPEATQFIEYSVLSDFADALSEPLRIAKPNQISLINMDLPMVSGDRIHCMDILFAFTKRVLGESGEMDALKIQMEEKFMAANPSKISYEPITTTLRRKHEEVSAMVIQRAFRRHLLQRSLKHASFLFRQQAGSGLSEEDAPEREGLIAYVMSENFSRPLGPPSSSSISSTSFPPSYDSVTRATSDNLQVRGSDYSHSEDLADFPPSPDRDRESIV
Experimental for human Nav 1.5: Nav 1.7 or Nav 1.5 Ion Works Quattro (IWQ) In Vitro Assay
HEK 293 Cells stably transfected with either human Nay 1.7 or human Nay 1.5 were recorded in population patch-clamp mode with the IonWorks® Quattro automated electrophysiology system in accordance with the manufacturer's specifications (Molecular Devices, LLC, Sunnyvale, Calif.). Sodium channel currents were measured in response to a train of depolarizations that induced successively greater inactivation.
Cells were held at −110 mV for three seconds (Nav 1.7) or half a second (Nav 1.5) from a holding voltage of −15 mV, then put through a series of 26 pulses of 150 msec duration to −20 mV at a frequency of 5 Hz. Cells were then left unclamped for a period of 3 to 8 minutes while a single concentration of test compound was added. Cells were then reclamped and put through the same voltage protocol. Current at the end of the 26th pulse to −20 mV was subtracted from the peak current evoked by the 26th pulse to −20 mV to correct for leak current. Percent block was calculated for each concentration in duplicate, and IC50 curves were fitted to percent block as a function of concentration.
Experimental for human Nav1.7: HEK 293 cells stably transfected with human Nav1.7 were recorded in whole cell voltage clamp mode with the PatchXpress automated electrophysiology system (Molecular Devices, LLC, Sunnyvale, Calif.). Compound effects were measured on a partially inactivated state of the sodium channel. Cells were clamped to a holding potential yielding 20 to 50% inactivation. To elicit sodium current, channels were activated by pulsing to −10 mV for 20 msec. This voltage protocol was repeated at a rate of 0.1 Hz throughout the experiment. A single concentration of test compound was applied to cells for a duration of 3 minutes. Peak sodium current was measured at the end of the compound addition period to determine percent inhibition. Three to five cells were tested per concentration, and IC50 curves were fitted to percent inhibition as a function of concentration.

Regarding `Cc1cc(C(=O)NS(C)(=O)=O)c(F)cc1-c1cnc(Oc2ccc(Br)cc2)c(Cl)c1` [Example 609, 4-(6-(4-bromophenoxy)-5-chloro-3-pyridinyl)-2-fluoro-5-methyl-N-(methylsulfonyl)benzamide], the IC50 (usually the midpoint of a concentration-inhibition curve) on human Nav 1.5 (read-out: NAV 1.5 IWQ IC50) is more than 3000 nM; against human Nav1.7 it was 77.4 nM.
The matching figures for `Cc1cc(C(=O)NS(C)(=O)=O)c(F)cc1-c1cnc(OCc2nc3ccccc3s2)c(Cl)c1` [Example 636, 4-(6-(1,3-benzothiazol-2-ylmethoxy)-5-chloro-3-pyridinyl)-2-fluoro-5-methyl-N-(methylsulfonyl)benzamide]: more than 3000 nM and 55.7 nM.
With `C[C@@](Oc1ncc(-c2cc(F)c(C(=O)NS(C)(=O)=O)cc2F)cc1Cl)(c1ccccc1)C(F)(F)F` (single isomer, unassigned) [Example 804], on human Nav 1.5 (setting [1]), the IC50 was more than 3000 nM.
For the molecule `Cc1cc(C(=O)NS(C)(=O)=O)c(F)cc1-c1cnc(Oc2c(C)cc(Cl)cc2Cl)c(Cl)c1` [Example 628, 4-(5-chloro-6-(2,4-dichloro-6-methylphenoxy)-3-pyridinyl)-2-fluoro-5-methyl-N-(methylsulfonyl)benzamide], the IC50 on human Nav 1.5 (read-out: NAV 1.5 IWQ IC50) amounted to 2190 nM; at human Nav1.7, 56 nM.
The matching figures for `Cc1cc(C(=O)NS(C)(=O)=O)c(F)cc1-c1cnc(Oc2c(Cl)cc(F)cc2Cl)c(Cl)c1` [Example 644, 4-(5-chloro-6-(2,6-dichloro-4-fluorophenoxy)-3-pyridinyl)-2-fluoro-5-methyl-N-(methylsulfonyl)benzamide]: more than 3000 nM and 82.8 nM.
`Cc1ccc(C(C)(C)C)c(Oc2ncc(-c3cc(F)c(C(=O)NS(C)(=O)=O)cc3C)cc2Cl)c1` [Example 624, 4-(6-(2-tert-butyl-5-methylphenoxy)-5-chloro-3-pyridinyl)-2-fluoro-5-methyl-N-(methylsulfonyl)benzamide]: the IC50 at human Nav 1.5 (read-out: NAV 1.5 IWQ IC50) was more than 3000 nM; against human Nav1.7, 82.7 nM.
`COc1cc(C(=O)NS(C)(=O)=O)c(F)cc1-c1cnc(OCc2nc3ccccc3s2)c(Cl)c1` [Example 708, 4-(6-(1,3-benzothiazol-2-ylmethoxy)-5-chloro-3-pyridinyl)-2-fluoro-5-methoxy-N-(methylsulfonyl)benzamide]: the half-inhibitory concentration (IC50) is more than 3000 nM at human Nav 1.5 (setting [2]) and 32.6 nM at human Nav1.7 (in-vitro Nav 1.7 PX data).
With `Cc1ccc(Oc2ncc(-c3cc(F)c(C(=O)NS(C)(=O)=O)cc3C)cc2Cl)cc1F` [Example 623, 4-(5-chloro-6-(3-fluoro-4-methylphenoxy)-3-pyridinyl)-2-fluoro-5-methyl-N-(methylsulfonyl)benzamide], the figures for the IC50 against human Nav 1.5 and at human Nav1.7 were 4840 nM and 48.5 nM, respectively.
Regarding `COc1cc(C(=O)NS(C)(=O)=O)ccc1-c1cnc(Oc2c(C)cc(Cl)cc2Cl)c(C#N)c1` [Example 689, 4-(5-cyano-6-(2,4-dichloro-6-methylphenoxy)-3-pyridinyl)-3-methoxy-N-(methylsulfonyl)benzamide], the IC50 at human Nav 1.5 (read-out: NAV 1.5 IWQ IC50) stood at 1000 nM; against human Nav1.7, 28.4 nM.
The matching figures for `Cc1cc(C(=O)NS(C)(=O)=O)c(F)cc1-c1cnc(Oc2cccc(Br)c2)c(Cl)c1` [Example 607, 4-(6-(3-bromophenoxy)-5-chloro-3-pyridinyl)-2-fluoro-5-methyl-N-(methylsulfonyl)benzamide]: more than 3000 nM and 68.2 nM.
In the case of `Cc1cc(C(=O)NS(=O)(=O)C2CC2)c(F)cc1-c1cnc(Oc2c(C)cc(Cl)cc2Cl)c(Cl)c1` [Example 801, 4-(5-chloro-6-(2,4-dichloro-6-methylphenoxy)-3-pyridinyl)-N-(cyclopropylsulfonyl)-2-fluoro-5-methylbenzamide], the IC50 on human Nav 1.5 (setting [2]) worked out at 485 nM; against human Nav1.7 (in-vitro Nav 1.7 PX data), 56.2 nM.
Regarding `COc1cc(C(=O)NS(C)(=O)=O)c(F)cc1-c1cnc(Oc2cc(Cl)ccc2C)c(Cl)c1` [Example 699, 4-(5-chloro-6-(5-chloro-2-methylphenoxy)-3-pyridinyl)-2-fluoro-5-methoxy-N-(methylsulfonyl)benzamide], the values for the IC50 at human Nav 1.5 (read-out: NAV 1.5 IWQ IC50) and against human Nav1.7 were more than 3000 nM and 55.1 nM, respectively.
The matching figures for `Cc1cc(C(=O)NS(C)(=O)=O)c(F)cc1-c1cnc(O[C@H](C)c2nc3cc(Cl)ccc3s2)c(Cl)c1` [Example 653, 4-(5-chloro-6-((1R)-1-(5-chloro-1,3-benzothiazol-2-yl)ethoxy)-3-pyridinyl)-2-fluoro-5-methyl-N-(methylsulfonyl)benzamide, 4-(5-chloro-6-((1S)-1-(5-chloro-1,3-benzothiazol-2-yl)ethoxy)-3-pyridinyl)-2-fluoro-5-methyl-N-(methylsulfonyl)benzamide]: more than 3000 nM and 83.6 nM.
The matching figures for `Cc1cc(C(=O)NS(C)(=O)=O)c(F)cc1-c1cnc(Oc2cc(Cl)ccc2F)c(Cl)c1` [Example 617, 4-(5-chloro-6-(5-chloro-2-fluorophenoxy)-3-pyridinyl)-2-fluoro-5-methyl-N-(methylsulfonyl)benzamide]: more than 3000 nM and 93.3 nM.
On to `Cc1cc(C(=O)NS(C)(=O)=O)c(F)cc1-c1cnc(Oc2cccc(C)c2F)c(Cl)c1` [Example 618, 4-(5-chloro-6-(2-fluoro-3-methylphenoxy)-3-pyridinyl)-2-fluoro-5-methyl-N-(methylsulfonyl)benzamide], for which the IC50 on human Nav 1.5 (read-out: NAV 1.5 IWQ IC50) is more than 3000 nM; on human Nav1.7, 95 nM.
Turning to `Cc1cc(C(=O)NS(C)(=O)=O)c(F)cc1-c1cnc(O[C@H]2C[C@H]3CC[C@@H]2C3)c(Cl)c1` [Example 635, 4-(6-((1R,2S,4S)-bicyclo[2.2.1]hept-2-yloxy)-5-chloro-3-pyridinyl)-2-fluoro-5-methyl-N-(methylsulfonyl)benzamide], the IC50 at human Nav 1.5 (read-out: NAV 1.5 IWQ IC50) was more than 3000 nM; against human Nav1.7, 80.9 nM.
`CCCS(=O)(=O)NC(=O)c1cc(C)c(-c2cnc(OC3CCC3)c(Cl)c2)cc1F` [Example 796, 4-(5-chloro-6-(cyclobutyloxy)-3-pyridinyl)-2-fluoro-5-methyl-N-(propylsulfonyl)benzamide]: the IC50 at human Nav 1.5 (setting [2]) turned out to be 9310 nM; against human Nav1.7 (in-vitro Nav 1.7 PX data), 110 nM.
In the case of `CC[C@@H](Oc1ncc(-c2cc(F)c(C(=O)NS(C)(=O)=O)cc2Cl)cc1Cl)c1ccc(F)cc1` [Example 596, 5-chloro-4-(5-chloro-6-(((1R)-1-(4-fluorophenyl)propyl)oxy)-3-pyridinyl)-2-fluoro-N-(methylsulfonyl)benzamide, 5-chloro-4-(5-chloro-6-(((1S)-1-(4-fluorophenyl)propyl)oxy)-3-pyridinyl)-2-fluoro-N-(methylsulfonyl)benzamide], the values for the IC50 on human Nav 1.5 (read-out: NAV 1.5 IWQ IC50) and on human Nav1.7 were more than 3000 nM and 87.9 nM, respectively.
The matching figures for `Cc1cc(Cl)cc(Cl)c1Oc1ncc(-c2cc(F)c(C(=O)NS(C)(=O)=O)cc2F)cc1Cl` [Example 567, 4-(5-chloro-6-(2,4-dichloro-6-methylphenoxy)-3-pyridinyl)-2,5-difluoro-N-(methylsulfonyl)benzamide]: more than 4900 nM and 59.8 nM.
Regarding `Cc1cc(C(=O)NS(C)(=O)=O)c(F)cc1-c1cnc(O[C@H](C)c2cc(Cl)ccc2Cl)c(Cl)c1` [Example 673, 4-(5-chloro-6-((1R)-1-(2,5-dichlorophenyl)ethoxy)-3-pyridinyl)-2-fluoro-5-methyl-N-(methylsulfonyl)benzamide], the IC50 on human Nav 1.5 (read-out: NAV 1.5 IWQ IC50) was more than 10000 nM.
As for `C[C@](Oc1ncc(-c2cc(F)c(C(=O)NS(C)(=O)=O)cc2F)cc1Cl)(c1ccccc1)C(F)(F)F` (single isomer, unassigned) [Example 805], the IC50 at human Nav 1.5 (setting [1]) is more than 3000 nM.
